Patent US6956046B2, “4-hydroxypiperidine derivatives having analgesic activity” (priority 2001, dated 2005)

How the values were obtained:
[1] = tested on: formalin-induced nociceptive response in rats; experiment: Inhibitory effect on the formalin-induced nociceptive response in rats; type: in vivo, rat; conditions: oral, 30 minutes before subcutaneous formalin; probit method
Protocol: [Inhibitory Effect on the Formalin-induced Nociceptive Response in Rats]
The experiment was undertaken by the method disclosed by Doak et al., Eur. J. Pharmacol. 281:311, 1995. Specifically, 50 μL of 0.5% formalin solution was subcutaneously injected into the left foot pad of the rat, and then each behavior of the rat consisting of the licking or biting of the pad immediately following the injection was checked with a stopwatch for its duration, and its cumulative duration was recorded at five minute intervals. The nociceptive response observed in 10 minutes after the injection was termed a first-phase response while the response observed between 10 minutes and 45 minutes after the injection was termed a second-phase response. The test compound was orally applied to the rat 30 minutes before the subcutaneous injection of formalin. Then, the inhibitory effect of the test compound on the nociceptive response induced by the formalin injection was calculated according to the following formula and 30% inhibition dose (ED30 value) was determined by the probit method. To mention, for illustration, ED30 value of carbamazepine was 27 mg/kg. Percent inhibition (%)=[(PRcontrol−PRtest)/PRcontrol]×100 wherein PRtest is the response time (sec) of the test group which received formalin and the test compound, while PRcontol is the response time of the control group which. received formalin and vehicle.

[2] = tested on: rat model made by loosely constricting the sciatic nerve; experiment: Efficacy in the rat model made by loosely constricting the sciatic nerve (von Frey response threshold); type: in vivo; conditions: for Mean threshold (g) Injured foot (left) / Mean threshold (g) Normal foot (right): one hour after dosing
Protocol: [Efficacy in the Rat Model Made by Loosely Constricting the Sciatic Nerve]
Preparation of the rat pain model based on the constriction of the sciatic nerve was performed by the method introduced by Bennett et al. (“Pain,” 33:87, 1988). Specifically, the rat was anesthetized with i.p. injection of pentobarbital sodium at 40 mg/kg; the overlying skin was cut open; and the left biceps femoris muscle was bluntly separated. The sciatic nerve was isolated from surrounding tissues; it was gently constricted at four sites about 1 mm apart from each other by the use of surgical gut sutures (4-0 or 3-0 chromic gut); the operated part was closed; and the rat was returned to its cage for further feeding. For the rat belonging to the sham-surgery group, the same operation was performed except that the sciatic nerve was left untouched. Two weeks after the surgery, the response threshold to a mechanical stimulus consisting of touch with von Frey filaments was determined. The test proceeded as follows: the test compound was orally applied to the rat having the sciatic nerve constricted; one hour later, von Frey hairs were applied against the foot pad (spots ranging from heel to the mid-point of foot) one after another in an ascending order of their stiffness; if the rat raises its foot when a certain von Frey hair was applied, the stimulus intensity of that hair was taken as the response threshold (maximum stimulus intensity being 28.84 g).

[3] = tested on: Wistar Hannover female rats; experiment: Toxicological study, oral, rats; type: in vivo, rat
Protocol: The compounds of Example 8 or Example 12 were orally given to 6 week-old Wistar Hannover female rats at 40 mg/kg/day.
The compound of Example 29 was orally given to 6 week-old Wistar Hannover female rats at 400 mg/Kg/day once daily for 14 days, respectively.

[4] = Metabolic stability in human liver microsomes and hepatocytes; type: in vitro ADME
[5] = Pharmacokinetics: plasma concentration after a single oral administration; type: in vivo; conditions: male rhesus monkey
Text: The compound of Example 12 or Example 29 were studied about time-course profile of plasma concentration after a single oral administration to 3 or 4 year-old male rhesus monkey. […] Therefore, it can be considered to cause unlikely the drug-drug interaction by the compounds. […] Therefore, it can be considered that the compounds are unlikely metabolized by first pass effect.

[6] = tested on: human-drug metabolizing enzymes; experiment: Inhibitory effect on human-drug metabolizing enzymes; type: in vitro ADME
[7] = Metabolic stability in dog liver microsomes and hepatocytes; type: in vitro ADME
rhesus male monkeys = experiment: Toxicological study, oral, 14 days, monkeys; type: in vivo, rhesus monkey; conditions: for survival: until 24 hours after final administration
Protocol: The compound Example 12 or Example 29 were orally given to 3 year-old rhesus male monkeys at 20 mg/Kg/day and 40 mg/Kg/day, respectively, once daily for 14 days.

[8] = Metabolic stability in rat liver microsomes and hepatocytes; type: in vitro ADME
rhesus male monkey = experiment: Holter ECG test; type: in vivo; conditions: oral 80 mg/Kg, 4 year-old rhesus male monkey
Protocol: In Holter ECG test, the compound of Example 12 or Example 29 were orally given to 4 year-old rhesus male monkey at 80 mg/Kg. There was no effect in electrocardiogram.

[9] = Metabolic stability in monkey liver microsomes and hepatocytes; type: in vitro ADME
[10] = oral 40 mg/kg/day, 6 week-old female rats
[11] = oral 40 mg/kg/day, 6 week-old female rats, examination period
[12] = oral 20 mg/Kg/day once daily for 14 days
[13] = oral 40 mg/Kg/day once daily for 14 days
[14] = oral 400 mg/Kg/day once daily for 14 days

## Cl.N#Cc1ccc(CCN2CCC(O)(COc3ccc(C(N)=O)cc3)CC2)cc1
other
  melting point: 251 to 254.9 °C

## CN(CC1(O)CCN(CCc2ccc(C#N)cc2)CC1)c1cccc(C(=O)O)c1.Cl
other
  melting point: 125.5 to 129.7 °C

## CN(CC1(O)CCN(CCc2ccc(C#N)cc2)CC1)c1ccccc1C(=O)O.Cl
other
  melting point: 195.3 to 200.6 °C

## CN(CC1(O)CCN(CCc2ccc(C#N)cc2)CC1)c1ccc([N+](=O)[O-])cc1.Cl
other
  melting point: 169.8 to 173.6 °C

## Cl.N#Cc1ccc(CCN2CCC(O)(CNc3ccc(C(=O)O)cc3)CC2)cc1
other
  melting point: 247.7 to 253.2 °C

## CN(CC1(O)CCN(CCc2ccc(S(C)(=O)=O)cc2)CC1)c1ccc(C(=O)O)cc1.Cl
other
  melting point: 246.5 to 249.6 °C

## CN(CC1(O)CCN(CCc2ccccc2)CC1)c1ccc(C(=O)O)cc1.Cl
other
  melting point: 242.5 to 245 °C

## CN(CC1(O)CCN(CCc2cccc(C#N)c2)CC1)c1ccc(C(=O)O)cc1.Cl
other
  melting point: 166.8 to 176.4 °C

## CN(CC1(O)CCN(CCc2ccccc2C#N)CC1)c1ccc(C(=O)O)cc1.Cl
other
  melting point: 197.2 to 222.4 °C

## Cl.N#Cc1ccc(CCN2CCC(O)(COc3ccc(O)cc3)CC2)cc1
other
  melting point: 253 to 255.6 °C

## COC(=O)c1ccc(OCC2(O)CCN(CCc3ccc(C#N)cc3)CC2)cc1.Cl
other
  melting point: 183.7 to 189.7 °C

## NC(=O)N1c2ccccc2C=Cc2ccccc21 [Carbamazepine, carbamazepine, reference compound]
[1]
  ED30 value (30% inhibition dose): 27 mg/kg
[2]; dose 30 mg/kg oral
  Mean threshold (g) Injured foot (left): 9.01 g
  Mean threshold (g) Normal foot (right): 20.53 g
[2]; injured side
  threshold of the injured paw to a mechanical stimulus (in words): significantly raised
[2]; normal side
  response threshold of the normal paw (in words): significantly raised

## N#Cc1ccc(CCN2CCC(O)(COc3ccc(C(N)=O)cc3)CC2)cc1 [Example 5, 4-(4-carbamoylphenoxymethyl)-1-[2-(4-cyanophenyl)ethyl]-piperidin-4-ol]
other
  melting point: 192.1 to 193.2 °C

## N#Cc1ccc(CCN2CCC(O)(COc3ccc([N+](=O)[O-])cc3)CC2)cc1 [Example 6, 1-[2-(4-cyanophenyl)ethyl)-4-(4-nitrophenoxymethyl)piperidin-4-ol]
other
  melting point: 134.7 to 156.7 °C

## Cl.N#Cc1ccc(CCN2CCC(O)(COc3ccc(CO)cc3)CC2)cc1 [Example 8, 1-[2-(4-cyanophenyl)ethyl]-4-(4-hydroxymethylphenoxymethyl)piperidin-4-ol hydrochloride]
[3]; [10]
  general appearance: no abnormalities
[3]; [11]
  survival: all the rats survived

## Cl.N#Cc1ccc(CCN2CCC(O)(COc3ccc([N+](=O)[O-])cc3)CC2)cc1 [Example 11, 1-[2-(4-cyanophenyl)ethyl]-4-(4-nitrophenoxymethyl)piperidin-4-ol hydrochloride]
[1]
  ED30 value (30% inhibition dose): 0.047 mg/kg
other
  melting point: 219.6 to 221.3 °C

## Cl.N#Cc1ccc(CCN2CCC(O)(COc3ccc(C(=O)O)cc3)CC2)cc1 [Example 12, 4-{1-[2-(4-cyanophenyl)ethyl]-4-hydroxypiperidin-4-ylmethoxy}benzoic acid hydrochloride]
[4]
  metabolic stability: metabolically stable
[5]
  bioavailability: very good bioavailability
  maximum plasma concentration (Cmax) and area under the plasma concentration-time curve (AUC) versus dose: increased almostly in proportion to the doses
[6]
  inhibitory effect on human-drug metabolizing enzymes: no serious inhibitory effect
[7]
  metabolic stability: metabolically stable
[1]
  ED30 value (30% inhibition dose): 2.0 mg/kg
Rhesus male monkeys; [12]
  general appearances, body weight gains and food consumptions: no abnormalities
  hematology, biochemistry, organ weight, and histopathology: No abnormal findings
  survival: All the monkeys survived
[8]
  metabolic stability: metabolically stable
Rhesus male monkey
  effect in electrocardiogram: no effect
[3]; [10]
  general appearance: no abnormalities
[3]; [11]
  survival: all the rats survived
[2]; dose 1 mg/kg oral
  Mean threshold (g) Injured foot (left): 7.96 g
  Mean threshold (g) Normal foot (right): 14.29 g
[2]; dose 3 mg/kg oral
  Mean threshold (g) Injured foot (left): 8.92 g
  Mean threshold (g) Normal foot (right): 14.71 g
[2]; dose 10 mg/kg oral
  Mean threshold (g) Injured foot (left): 10.96 g
  Mean threshold (g) Normal foot (right): 14.29 g
[9]
  metabolic stability: metabolically stable

## CN(CC1(O)CCN(CCc2ccc(C#N)cc2)CC1)c1cccc(C(=O)O)c1 [Example 15, 3-({1-[2-(4-cyanophenyl)ethyl]-4-hydroxypiperidin-4-ylmethyl}methylamino)benzoic acid]
other
  melting point: 181.9 to 189.1 °C

## CN(CC1(O)CCN(CCc2ccc(C#N)cc2)CC1)c1ccc([N+](=O)[O-])cc1 [Example 16, 4-[2-(4-hydroxy-4-{[methyl(4-nitrophenyl)amino]methyl}piperidin-1-yl)ethyl]benzonitrile]
other
  melting point: 98.3 to 108.1 °C

## CN(CC1(O)CCN(CCc2ccc(C#N)cc2)CC1)c1ccc(-c2nnn[nH]2)cc1 [Example 17, 4-{2-[4-hydroxy-4-({methyl[4-(1H-tetrazol-5-yl)phenyl]-amino}methyl)piperidin-1-yl]ethyl}benzonitrile]
other
  melting point: 159.7 to 171.8 °C

## CN(CC1(O)CCN(CCc2ccc(C#N)cc2)CC1)c1ccccc1C(=O)O [Example 19, 2-({1-[2-(4-cyanophenyl)ethyl]-4-hydroxypiperidin-4-ylmethyl}methylamino)benzoic acid]
other
  melting point: 106.5 to 116.2 °C

## CN(CC1(O)CCN(CCc2ccc(C#N)cc2)CC1)c1ccc(C(=O)O)cc1.Cl [Example 29, 4-({1-[2-(4-cyanophenyl)ethyl]-4-hydroxypiperidin-4-ylmethyl}methylamino)benzoic acid monohydrochloride]
[4]
  metabolic stability: metabolically stable
[5]
  bioavailability: very good bioavailability
  maximum plasma concentration (Cmax) and area under the plasma concentration-time curve (AUC) versus dose: increased almostly in proportion to the doses
[6]
  inhibitory effect on human-drug metabolizing enzymes: no serious inhibitory effect
[7]
  metabolic stability: metabolically stable
[1]
  ED30 value (30% inhibition dose): 1.2 mg/kg
Rhesus male monkeys; [13]
  general appearances, body weight gains and food consumptions: no abnormalities
  hematology, biochemistry, organ weight, and histopathology: No abnormal findings
  survival: All the monkeys survived
[8]
  metabolic stability: metabolically stable
Rhesus male monkey
  effect in electrocardiogram: no effect
[3]; [14]
  general appearances, body weight gains and food consumptions: no abnormalities
  hematology, biochemistry, organ weight, and histopathology: No abnormal findings
[3]; oral 400 mg/Kg/day once daily for 14 days, until 24 hours after final administration
  survival: All the rats survived
[2]; dose 1 mg/kg oral
  Mean threshold (g) Injured foot (left): 5.22 g
  Mean threshold (g) Normal foot (right): 14.12 g
[2]; dose 3 mg/kg oral
  Mean threshold (g) Injured foot (left): 7.09 g
  Mean threshold (g) Normal foot (right): 14.49 g
[2]; dose 10 mg/kg oral
  Mean threshold (g) Injured foot (left): 8.61 g
  Mean threshold (g) Normal foot (right): 15.49 g
[9]
  metabolic stability: metabolically stable
